We go through 87 compounds from a melting point compilation (Tetko et al.; mined from patent text by program, amines drawn as free bases though some values may be those of a salt).

What is called melting point is the temperature of the solid-liquid transition. In turn, `NS(=O)(=O)c1cccc(-c2cn(-c3nc(-c4ccc(Cl)cc4)cc(C(F)(F)F)n3)cn2)c1` showed a melting point of 225 °C.
As for `COc1ccc(C(=O)NNC(=O)N(C)C)cc1`, the melting point is 218 to 220 °C.
To `CN1C(=O)[C@H](NC(=O)CCC2CCCCC2)N=C(c2ccccc2)c2ccccc21` belongs 144 to 146 °C; to `CC1(C)C(=NOCc2ccccc2)C(c2ccc(S(C)(=O)=O)cc2)=C1c1ccccc1`, 56 to 61 °C.
For `Cc1ccccc1S(=O)(=O)NC(=O)c1ccc2c(ccn2Cc2cccc(NC(=O)OC3CCCC3)c2)c1`, the melting point was 188 to 190 °C.
In the case of `O=C1C2CCCC2=Nc2ccccc2N1Cc1ccc(Cl)cc1Cl` (configuration not stated) it was 144 to 145 °C.
Take `C=C(C)C(=O)N1CCC(C(=O)O)CC1`: the melting point was in the range of 90 to 93 °C.
`O=C(c1ccc(F)cc1)C1CCN(CCCCn2c(=O)[nH]c3cscc3c2=O)CC1`: the melting point fell in the range of 190 to 192 °C.
For `CNc1onc2c1CCC2`, the melting point stood at 52 °C.
On to `CCCC1=NN(c2ccc(C#N)cc2)C(=O)C1=CNc1ccccc1CC`, for which the melting point worked out at 197 °C.
In the case of `COC(=O)COc1ccc(-c2ccc[nH]2)cc1`, the melting point was in the range of 136 to 137 °C.
The compound `O=C1CC(=O)CC(c2ccc(Cl)cc2Cl)C1` came in with a melting point of 192 to 196 °C.
Take `OC1Cc2c(Cl)cccc2Sc2ccc(C(F)(F)F)cc21` (configuration not stated): the melting point was in the range of 130 to 132 °C.
On to `COc1ccc(-c2ccc(C(=O)NCCOc3ccc(CC(Oc4ccc(C(C)C)cc4)C(=O)O)cc3)cn2)cc1` (configuration not stated), for which the melting point was 166 to 167 °C.
To `COc1ccc(C2=NN(C3CCN(S(C)(=O)=O)CC3)C(=O)CC2)cc1OC` belongs 164 to 166 °C; to `N=c1[nH]c(=N)c2ncn(C3OC(CO)C(O)C3O)c2c(=N)[nH]1` (configuration not stated), greater than 200 °C.
The compound `CSC(C(N)=O)c1cccc(C(=O)c2ccccc2)c1N` (configuration not stated) displayed a melting point of 153 to 155 °C.
As for `O=C(O)CCCc1cc2nc(Cl)ccc2n1S(=O)(=O)c1ccc2ncccc2c1`, the melting point fell in the range of 153 to 162 °C.
In turn, `O=C1C(=O)c2ccc(-c3ccccc3)cc2C2=C1SCC1(CCNCC1)O2` registered a melting point of 83 to 87 °C.
To `COc1c(Cl)c(Cl)c2c(-c3ccccc3F)noc2c1Cl` belongs 120 to 140 °C; to `COC(=O)c1cccc2nc(SCCCN3CCN(CC(=O)Nc4c(SC)cc(C)nc4SC)CC3)oc12`, 76 to 79 °C.
Turning to `O=C(NO)c1ccc(OCCNS(=O)(=O)c2ccc(C(=O)Nc3ccc(Cl)c(-c4ccccn4)c3)c(Cl)c2)cc1`, the melting point lay in the range of 138 to 139 °C.
`Fc1ccc(Nc2cc(Cl)nc(NN=Cc3ccc(OC(F)(F)F)cc3)n2)cc1C(F)(F)F`: the melting point lay in the range of 162 to 164 °C.
In the case of `O=S(=O)(c1ccccc1)n1ccc2cnccc21` it was 127 °C.
To `CC(C)Oc1ccccc1-c1cc(=O)c2cc(C(=O)O)ccc2o1` belongs 133 to 135 °C; to `CC(C)[C@@H]1O[C@](C#CC2CC2)(C(F)(F)F)c2cc(Cl)ccc2NC1=O` (relative stereo), 167 °C.
Regarding `Cc1ccc2c(c1NC(=O)NCC1(c3ccccc3)CCCC1)OC(C)(C)C2`, the melting point worked out at 186 °C.
On to `O=c1[nH]c2cccc(OCC(O)CNCCc3ccc(-n4c(CCC5CCCC5)nc5cccnc54)cc3)c2[nH]1` (configuration not stated), for which the melting point was 115 to 117 °C.
For `CC(=O)N1CCC(C(=O)c2ccc(F)cc2F)CC1`, the melting point turned out to be 97 °C.
To `CCOc1nc(C(F)(F)F)cc(=O)n1-c1cc(O)c(Br)cc1F` belongs 160 to 161 °C; to `O=c1c2ccccc2nc(-c2cc(-c3ccncc3)c(N3CCOCC3)s2)n1-c1ccccc1Cl`, 179 to 180 °C.
To `Oc1nc2ccc3nsnc3c2nc1O` belongs greater than 300 °C; to `CCCCNC(=O)c1ccc(Cl)c(-n2nc(CCCC)n(Cc3ccc(-c4ccccc4S(=O)(=O)NC(=O)c4ccccc4Cl)cc3F)c2=O)c1`, 218 to 220 °C.
Regarding `O=C(O)c1cnc(Oc2ccccc2)s1`, the melting point is 172 to 173 °C.
Regarding `CCCCCC1(O)CCC2(C)C(CCC3C4CCC(C5(C)OCCO5)C4(C)CC(=O)C32)C1` (configuration not stated), the melting point was 106 °C.
On to `CC(=O)OC1CSC(Oc2ccc(-c3cnoc3C)nc2)C(OC(C)=O)C1OC(C)=O` (configuration not stated), for which the melting point was found to be 165 °C.
In the case of `CC12CCC(=O)N1CC(=O)N2` (configuration not stated) it was 187 to 189 °C; in that of `CCOC(=O)Cc1ccc(NCc2cc(Br)ccc2OCc2ccccc2)cc1`, 73 °C; in that of `O=C1NCCN1c1ccccc1`, 154 to 156 °C.
The compound `Cc1c(C)n(CC2CC2)c2c(CCc3ccc(F)cc3F)nncc12` returned a melting point of 159 to 160 °C.
For the compound `C=CCc1ccc(OCCC(C)C)c2c(=O)cc(C(=O)O)oc12`, the melting point was 79 to 80 °C.
In the case of `O=C(N=C1CCCN1Cc1ccccc1)Nc1ccc(F)c(Cl)c1` it was 131 to 132 °C.
Regarding `NCC1Cc2cc(-c3ccc(C(F)(F)F)cc3)cc(F)c2O1` (configuration not stated), the melting point is greater than 250 °C.
On to `Nc1ncc(-c2cccc(Nc3ccc(-c4ccco4)cc3[N+](=O)[O-])c2)cn1`, for which the melting point lay in the range of 178 to 180 °C.
In the case of `N[C@@H](CCC(=O)NCCS(=O)(=O)O)C(=O)O` it was 202 to 204 °C.
As for `CCc1ccc(S(C)(=O)=O)c(C(=O)c2ccc(F)cc2)c1`, the melting point lay within 145 to 147 °C.
As to `O=C(O)C(=O)CC(=O)c1cccn1Cc1ccccc1Br`, the melting point fell in the range of 176 to 180 °C.
`Cc1cc(N(C)Cc2ccc(-c3ccc(C(F)(F)F)cc3)nc2)ccc1OCC(=O)O` showed a melting point of 199 °C.
Regarding `c1coc(Cn2c(NC3CCN(CCOc4nccs4)CC3)nc3ccccc32)c1`, the melting point was 136 °C.
On to `Cc1nc2c(OCc3c(Cl)ccc(S(=O)(=O)N4CCC[C@H]4C(=O)NCc4ccc(C=NN)cc4)c3Cl)cccn2c1Br`, for which the melting point amounted to 124 °C.
Regarding `N#Cc1ccc(N2CCC(N3CCCC3)CC2)cc1`, the melting point fell in the range of 88 to 89 °C.
In the case of `CCCc1nc2c(N)nc3c(c2n1CC1(O)CCCC1)NCCC3` it was 207 to 208 °C; in that of `CC(=O)OC1(C)CCC2C(C)(C)CCCC2(C)C1CCC(C)(O)C1CO1` (configuration not stated), 130 to 131 °C.
The compound `CC(C)(CO)Oc1ccc(COc2ccc(Cl)cc2)cc1` yielded a melting point of 67 to 70 °C.
As for `CC(C)(O)C(=O)Nc1ccc(Sc2ccc(NS(C)(=O)=O)cc2)cc1Cl`, the melting point was in the range of 138 to 140 °C.
In turn, `Nc1ccc(N2CCCC2)c(S(=O)(=O)O)c1` had a melting point of 255 to 256 °C.
As to `Nc1cc(NC(=O)c2ccccc2)ccn1`, the melting point was in the range of 187 to 188 °C.
Take `CN(C)c1ccc2c(=O)[nH]c(=O)n(CCCCN3CCC(OC(c4ccccc4)c4ccccc4)CC3)c2c1`: the melting point is 203 to 204 °C.
As to `CNc1cc(NS(=O)(=O)c2ccc(N)cc2)nc(NC)n1`, the melting point was 303 to 305 °C.
For `CC1(c2ccc(Br)cc2)C(=O)Nc2cc(Cl)cc(Cl)c2C1=O` (configuration not stated), the melting point lay in the range of 237 to 238 °C.
`CCCc1ccc(-c2cnc(C#N)c(C#N)n2)cc1`: the melting point is 87 to 87.9 °C.
`O=C1NCN(c2ccccc2)C12CCN(CCCOc1ccc(F)cc1Cl)CC2`: the melting point lay within 154 to 155 °C.
The compound `O=C(CCNC(=O)OCc1ccccc1)NC1C(C(=O)O)OC(n2cnc3c(NC(=O)c4ccccc4)ncnc32)C1O` (configuration not stated) yielded a melting point of 136 to 141 °C.
Take `CC(C)C(=O)NC1CCc2[nH]c3cc4c(cc3c2C1)OCO4` (configuration not stated): the melting point is 198 to 200 °C.
In turn, `COc1ccc2sc(C(N)=O)c(SC)c2c1` showed a melting point of 171 to 173 °C.
Turning to `CC(=O)NC(=O)N1CC1C#N` (configuration not stated), the melting point lay within 139 to 142 °C.
Compound `CC1=CCCN(C)C1COC(=O)c1c[nH]c2ccccc12` (configuration not stated) yielded a melting point of 172 °C.
Turning to `CCN(c1ccc(OCc2ccc(OC(F)(F)F)cc2)cc1)C1CCN(c2ccc(OC[C@H]3CCn4cc([N+](=O)[O-])nc4O3)cc2)CC1`, the melting point lay within 95.2 to 97 °C.
Compound `CCN1CCN(Cc2ccc(-c3ccc4c(Nc5cc(OC)c(Cl)cc5Cl)c(C#N)cnc4c3)o2)CC1` had a melting point of 157 to 160 °C.
`COC(=O)c1cnc(CO)n1C` yielded a melting point of 145 to 147 °C.
Turning to `CCCc1nc2c(N)nc(C)c(C)c2n1CCCCCS(C)(=O)=O`, the melting point was in the range of 145 to 146 °C.
In turn, `C[Si](C)(Cc1ccc(N(c2ccccc2)c2ccccc2)cc1)Cc1ccc(N(c2ccccc2)c2ccccc2)cc1` returned a melting point of 125 to 127 °C.
`CC(=O)N[C@@H](CS)C(=O)NCCSC(C)=O`: the melting point is 153 to 154 °C.
On to `O=C(O)[C@@H]1CSC(c2ccccc2O)N1C(=O)CCBr` (some centres not stated), for which the melting point was 109 to 115 °C.
`CCCC1CC1(C(=O)Nc1ccc(Br)cc1C)C(=O)OC` (configuration not stated) gave a melting point of 60 °C.
`O=C1N(Cc2ccc(=O)[nH]c2)c2ccccc2C12COc1cc3c(cc12)OCCO3` (configuration not stated): the melting point was in the range of 249 to 250 °C.
In turn, `Cn1c(-c2cc(C(F)(F)F)nn2-c2ncccc2Cl)nc2c(Cl)cccc2c1=O` displayed a melting point of 155 to 157 °C.
To `COc1cc(Nc2c(C#N)cnc3cc(-c4ccc(CO)cc4)ccc23)c(Cl)cc1Cl` belongs 264 to 267 °C; to `CN1C(C(=O)Nc2ccccn2)=C(OC2OC(=O)c3ccccc32)c2ccccc2S1(=O)=O` (configuration not stated), 151 to 152 °C; to `CN1C(=O)C(C)(C)CCc2cc(C(=O)O)ccc21`, 240 to 241 °C.
Take `CNc1cccc(OC)c1[N+](=O)[O-]`: the melting point was 58 to 59 °C.
Compound `O=C1OC(CO)CN1c1ccc(N2CC3CSCC3C2)c(F)c1` (configuration not stated) gave a melting point of 165 to 167 °C.
Consider `CNC(=S)N(C)Cc1ccc(Cl)nc1`, for which the melting point was 109 to 110 °C.
Consider `CNC(=S)C1(c2cccnn2)CCCS1` (configuration not stated), for which the melting point was found to be 199 °C.
To `CC(C)(C)OC(=O)NC1COCCCC=CC2CC2(C(=O)NS(=O)(=O)C2CC2)NC(=O)C2CC(OC(=O)c3ccc(Oc4ccccc4)cc3)CN2C1=O` (configuration not stated) belongs 207 to 209 °C.
Regarding `CNC(=O)c1cc2ccccc2c(-c2cccc(I)c2)n1`, the melting point lay within 172 to 174 °C.
To `COc1cc(CCCC2OC(=O)NC2=O)ccc1OCc1nc(-c2ccccc2)no1` (configuration not stated) belongs 110 to 111 °C.
